{
  "source": "patent US10005809B2",
  "about": "“Bio-active antioxidants from plant foods for nutraceutical product development” (priority 2013, dated 2018)",
  "key": {"[1]": {"test": "Trolox Equivalents Antioxidant Capacity (TEAC) assay", "format": "biochemical", "settings": "for TEAC (Trolox equivalent antioxidant capacity) ± SEM: compounds 10-1000 μM, ABTS 0.5 mM, 734 nm, 6 min, ratio of slopes, no unit, n = 3; for antioxidant activity (in words): TEAC measurements", "description": "Trolox Equivalents Antioxidant Capacity (TEAC) Assay of Compounds (1-11)\nPure compounds and standards (conc. Range 10-1000 μM) were reacted with the fixed concentration of ABTS (0.5 mM) according to the reported method. The decrease in absorbance at 734 nm was recorded 6 min after the addition of pro-formed ABTS radical solution. Standards including Trolox, quercetin, kaempferol and ascorbic acid were used for the comparison of structure-activity relationship with the isolated compounds. The calculation of TEAC values was obtained by plotting the graphs between various concentrations of compounds and percent radical scavenging activity. Slope (m) was then calculated by using the linear regression (y=mx+c) of the plotted curve. Ratio of the value of slope of Trolox with that of isolated compounds was calculated to get TEAC value as follows; TEACCompound=Slope of Trolox/Slope of compound (3)\nThe TEAC assay was used to assess the power of reduction of total amount of ABTS^•+ radicals formed during the reaction by bioactive metaboilite. The ABTS is intensely colored and when it reacts with antioxidant the color disappeared. […] In present procedure, the ratio of the slope of concentrations of standard and test compound is taken, therefore TEAC is considered as relative value with no unit. Trolox used as standard antioxidant with TEAC value as 1."}, "[2]": {"test": "Liver function test (LFT) and lipid profile of serum after oral extract feeding", "format": "in vivo, Male Wistar rats", "settings": "rat serum after two weeks oral feeding; mean ± SEM, n = 6", "text": "Rats were housed in polycarbonate cages, containing hardwood chip bedding. A standard pallet diet and water was made available ad-libitum. A 12 hr light/dark cycle was maintained throughout tbe study. After 14 days of acclimatization, the rats were randomized, and divided to 6 animals in each group: control, test, and positive control (Trolox). Oral doses of extracts were given after every alternate day and their physical status and weight changes were monitored daily. Control group has received an equal volume of normal saline for the same period of time. The experiment was terminated after two weeks of feeding. Under mild anesthetic conditions, blood was drawn via heart puncture. Blood was collected in clot activator plastic tubes, and allowed to clot for 30-40 minutes. Serum was separated by centrifugation and then stored at -20° C. till antioxidant status and other biochemical analysis were carried out. LPT and Lipid Profile The diagnostic facilities of […]), University of Karachi, were used for the biochemical analysis of serum samples. Lipid profile includes cholesterol, triglycerides, high density lipoproteins (HDL), low density lipoproteins (LDL), and LPT including bilirubin (total and direct), enzymes such as alanine aminotransferase (ALT), alkaline phosphatase (ALP), and gamma […] (GGT), were measured. These assays were performed by fully automated chemistry analyzer (Hitachi 902, Roche Diagnostics, Japan) with standardized kits, calibrators, and controls. Total lipid was estimated manually by calorimetric method of phosphovanilline on a photometer (Clinicon 4010, Boehringer […], Germany)."}},
  "note": "“And” between values parts separate entries of the source, which are not always exact repeats. Identical values can stand only once. Counter-ions that a name gives are not always drawn.",
  "data": [
    {"molecule": "O=c1c(O)c(-c2ccc(O)cc2)oc2cc(O)cc(O)c12", "note": "[Kaempferol, reference compound]", "values": [
      {"measurement": "TEAC (Trolox equivalent antioxidant capacity) ± SEM", "setting": "[1]", "value": "0.97 ± 0.27"},
      {"measurement": "TEAC (Trolox equivalent antioxidant capacity) ± SEM", "setting": "[1]; listed as keampferol", "value": 0.97}
    ]},
    {"molecule": "O=c1c(O)c(-c2ccc(O)c(O)c2)oc2cc(O)cc(O)c12", "note": "[Quercetin, reference compound]", "values": [
      {"measurement": "TEAC (Trolox equivalent antioxidant capacity) ± SEM", "setting": "[1]", "value": "1.07 ± 0.23"},
      {"measurement": "TEAC (Trolox equivalent antioxidant capacity) ± SEM", "setting": "[1]; listed as quercetin", "value": "1.07±0.23"}
    ]},
    {"molecule": "COC(=O)CC(O)(CC(=O)OC)C(=O)OC", "note": "[compound 11, trimethyl citrate]", "values": [
      {"measurement": "antioxidant activity (in words)", "setting": "[1]", "value": "moderate to low antioxidant activity"},
      {"measurement": "TEAC (Trolox equivalent antioxidant capacity) ± SEM", "setting": "[1]", "value": "0.58±0.12"}
    ]},
    {"molecule": "O=C(O)c1ccc(O)c(O)c1", "note": "[compound 9, 3,4-dihydroxybenzoic acid]", "values": [
      {"measurement": "TEAC (Trolox equivalent antioxidant capacity) ± SEM", "setting": "[1]", "value": "0.95 ± 0.01"}
    ]},
    {"molecule": "O=c1c(O[C@@H]2O[C@H](CO)[C@@H](O)[C@H](O)[C@H]2O)c(-c2ccc(O)c(O)c2)oc2cc(O)cc(O)c12", "note": "[compound 4, quercetin 3-O-β-D-glucoside]", "values": [
      {"measurement": "TEAC (Trolox equivalent antioxidant capacity) ± SEM", "setting": "[1]", "value": "0.82±0.23 and 0.82 ± 0.32"}
    ]},
    {"molecule": "C[C@H]1O[C@@H](Oc2c(-c3ccc(O)cc3)oc3cc(O)cc(O)c3c2=O)[C@@H](O)[C@@H](O)[C@@H]1O", "note": "[compound 3, kaempferol 3-O-β-D-rhamnoside]", "values": [
      {"measurement": "TEAC (Trolox equivalent antioxidant capacity) ± SEM", "setting": "[1]", "value": "0.91 ± 0.21"}
    ]},
    {"molecule": "myricetin 3-O-β-D-xyloside [compound 7]", "values": [
      {"measurement": "TEAC (Trolox equivalent antioxidant capacity) ± SEM", "setting": "[1]", "value": "0.92 ± 0.35"},
      {"measurement": "TEAC (Trolox equivalent antioxidant capacity) ± SEM", "setting": "[1]; listed as myricetin", "value": "0.92±0.35"}
    ]},
    {"molecule": "O=C(/C=C/c1ccc(O)cc1)O[C@H]1C(Oc2c(-c3ccc(O)c(O)c3)oc3cc(O)cc(O)c3c2=O)O[C@H](CO)[C@@H](O)[C@@H]1O", "note": "(some centres unmarked) [compound 6, quercetin 3-O-(2-p-coumaroylglucoside)]", "values": [
      {"measurement": "TEAC (Trolox equivalent antioxidant capacity) ± SEM", "setting": "[1]", "value": "0.36 ± 0.19"}
    ]},
    {"molecule": "O=C1O[C@H]([C@@H](O)CO)C(O)=C1O", "note": "[Ascorbic acid, reference compound]", "values": [
      {"measurement": "TEAC (Trolox equivalent antioxidant capacity) ± SEM", "setting": "[1]", "value": "1.14 ± 0.29"}
    ]},
    {"molecule": "Cc1c(C)c2c(c(C)c1O)CCC(C)(C(=O)O)O2", "note": "(centres unmarked) [Trolox, 6-hydroxy-2,5,7,8-tetramethylchroman-2-carboxylic acid]", "values": [
      {"measurement": "ALP", "setting": "[2]", "value": "212.54 ± 24.51", "unit": "U/L"},
      {"measurement": "ALT/SGPT", "setting": "[2]", "value": "45.5 ± 5.49", "unit": "U/L"},
      {"measurement": "Chol", "setting": "[2]", "value": "56.75 ± 2.07", "unit": "mg/dL"},
      {"measurement": "Direct Bilirubin", "setting": "[2]", "value": "0.085 ± 0.007", "unit": "mg/dL"},
      {"measurement": "GGT", "setting": "[2]", "value": "4.25 ± 0.74", "unit": "U/L"},
      {"measurement": "HDL-c", "setting": "[2]", "value": "55 ± 1.97", "unit": "mg/dL"},
      {"measurement": "Indirect Bilirubin", "setting": "[2]", "value": "0.43 ± 0.03", "unit": "mg/dL"},
      {"measurement": "LDL-c", "setting": "[2]", "value": "14.25 ± 0.96", "unit": "mg/dL"},
      {"measurement": "TAG", "setting": "[2]", "value": "40 ± 1.54", "unit": "mg/dL"},
      {"measurement": "Total Bilirubin", "setting": "[2]", "value": "0.51 ± 0.02", "unit": "mg/dL"},
      {"measurement": "Total Lipid", "setting": "[2]", "value": "260 ± 5", "unit": "mg/dL"},
      {"measurement": "VLDL", "setting": "[2]", "value": "8.5 ± 0.25", "unit": "mg/dL"},
      {"measurement": "TEAC (Trolox equivalent antioxidant capacity) ± SEM", "setting": "[1]", "value": 1}
    ]},
    {"molecule": "kaempferol 3-O-β-D-glucoside [compound 2]", "values": [
      {"measurement": "TEAC (Trolox equivalent antioxidant capacity) ± SEM", "setting": "[1]", "value": "0.80 ± 0.31"}
    ]},
    {"molecule": "1,5-dimethyl citrate [compound 10]", "values": [
      {"measurement": "antioxidant activity (in words)", "setting": "[1]", "value": "moderate to low antioxidant activity"},
      {"measurement": "TEAC (Trolox equivalent antioxidant capacity) ± SEM", "setting": "[1]", "value": "0.67±0.31"}
    ]},
    {"molecule": "COc1cc(-c2oc3cc(O)cc(O[C@@H]4O[C@H](COC(=O)CC(C)(O)CC(=O)O)[C@@H](O)[C@H](O)[C@H]4O)c3c(=O)c2O)ccc1O", "note": "(stereo partly drawn) [compound 1, isorhamnetol 5-O-[6″-(3-hydroxy-3-methyl glutarate)] β-D-glucoside]", "values": [
      {"measurement": "TEAC (Trolox equivalent antioxidant capacity) ± SEM", "setting": "[1]", "value": "0.88 ± 0.21"}
    ]},
    {"molecule": "C[C@H]1O[C@@H](Oc2c(-c3ccc(O)c(O)c3)oc3cc(O)cc(O)c3c2=O)[C@@H](O)[C@@H](O)[C@@H]1O", "note": "[compound 5, quercetin 3-O-β-D-rhamnoside]", "values": [
      {"measurement": "TEAC (Trolox equivalent antioxidant capacity) ± SEM", "setting": "[1]", "value": "0.82 ± 0.23"}
    ]},
    {"molecule": "O=Cc1ccc(CO)o1", "note": "[compound 8, 5-hydroxymethylfurfural]", "values": [
      {"measurement": "TEAC (Trolox equivalent antioxidant capacity) ± SEM", "setting": "[1]", "value": "1.05±0.24"}
    ]}
  ]
}
